According to the NIST ThermoML archive (doi:10.1021/je060271a):

Conditions: Liquid, Vibrating tube method

CCCCC(=O)OCC(COC(=O)CCCC)(COC(=O)CCCC)COC(=O)CCCC [pentaerythritol tetrapentanoate]
Conditions | mass density [kg/m3]
303.15 K, 29848 kPa | 1028.9
303.15 K, 29879 kPa | 1028.8
303.15 K, 29916 kPa | 1029
303.15 K, 29948 kPa | 1028.9
303.15 K, 29979 kPa | 1029
303.15 K, 30016 kPa | 1028.9
303.15 K, 30047 kPa | 1028.9
303.15 K, 30079 kPa | 1029
303.15 K, 30118 kPa | 1029
303.15 K, 30150 kPa | 1029.1
303.15 K, 30185 kPa | 1029
303.15 K, 30217 kPa | 1029
303.15 K, 30249 kPa | 1029.1
303.15 K, 30286 kPa | 1029
303.15 K, 30319 kPa | 1029.1
303.15 K, 30352 kPa | 1029.1
303.15 K, 30390 kPa | 1029
303.15 K, 30423 kPa | 1029.2
303.15 K, 30461 kPa | 1029.1
303.15 K, 30493 kPa | 1029.2
303.15 K, 30526 kPa | 1029.2
303.15 K, 30566 kPa | 1029.2
303.15 K, 30598 kPa | 1029.2
303.15 K, 30631 kPa | 1029.2
303.15 K, 30665 kPa | 1029.4
303.15 K, 30705 kPa | 1029.3
303.15 K, 30738 kPa | 1029.3
303.15 K, 30777 kPa | 1029.3
303.15 K, 30810 kPa | 1029.3
303.15 K, 30844 kPa | 1029.4
303.15 K, 30884 kPa | 1029.4
303.15 K, 30917 kPa | 1029.4
303.15 K, 30951 kPa | 1029.4
303.15 K, 30991 kPa | 1029.5
303.15 K, 31025 kPa | 1029.5
303.15 K, 31060 kPa | 1029.6
303.15 K, 31101 kPa | 1029.5
303.15 K, 31135 kPa | 1029.5
303.15 K, 31170 kPa | 1029.5
303.15 K, 31204 kPa | 1029.6
303.15 K, 31246 kPa | 1029.7
303.15 K, 31280 kPa | 1029.5
303.15 K, 31315 kPa | 1029.6
303.15 K, 31350 kPa | 1029.6
303.15 K, 31392 kPa | 1029.7
303.15 K, 31427 kPa | 1029.7
303.15 K, 31462 kPa | 1029.8
303.15 K, 31504 kPa | 1029.8
303.15 K, 31540 kPa | 1029.7
303.15 K, 31576 kPa | 1029.8
303.15 K, 31610 kPa | 1029.8
303.15 K, 31653 kPa | 1029.9
303.15 K, 31688 kPa | 1029.9
303.15 K, 31731 kPa | 1029.9
303.15 K, 31767 kPa | 1029.8
303.15 K, 31803 kPa | 1029.9
303.15 K, 31846 kPa | 1030
303.15 K, 31882 kPa | 1030
303.15 K, 31918 kPa | 1029.9
303.15 K, 31954 kPa | 1030
303.15 K, 31996 kPa | 1030
303.15 K, 32033 kPa | 1030
303.15 K, 32078 kPa | 1030.1
303.15 K, 32115 kPa | 1030.2
303.15 K, 32152 kPa | 1030.1
303.15 K, 32188 kPa | 1030.1
303.15 K, 32232 kPa | 1030.1
303.15 K, 32269 kPa | 1030.2
303.15 K, 32306 kPa | 1030.2
303.15 K, 32351 kPa | 1030.4
303.15 K, 32387 kPa | 1030.3
303.15 K, 32432 kPa | 1030.3
303.15 K, 32470 kPa | 1030.3
303.15 K, 32507 kPa | 1030.3
303.15 K, 32544 kPa | 1030.2
303.15 K, 32590 kPa | 1030.4
303.15 K, 32628 kPa | 1030.3
303.15 K, 32667 kPa | 1030.6
303.15 K, 32714 kPa | 1030.4
303.15 K, 32752 kPa | 1030.4
303.15 K, 32798 kPa | 1030.6
303.15 K, 32838 kPa | 1030.5
303.15 K, 32877 kPa | 1030.5
303.15 K, 32926 kPa | 1030.5
303.15 K, 32968 kPa | 1030.5
303.15 K, 33012 kPa | 1030.6
303.15 K, 33064 kPa | 1030.6
303.15 K, 33109 kPa | 1030.6
303.15 K, 33144 kPa | 1030.7
303.15 K, 33166 kPa | 1030.7
303.15 K, 33187 kPa | 1030.7
303.15 K, 33214 kPa | 1030.8
303.15 K, 33237 kPa | 1030.6
303.15 K, 33258 kPa | 1030.7
303.15 K, 33284 kPa | 1030.8
303.15 K, 33307 kPa | 1030.8
303.15 K, 33354 kPa | 1030.8
303.15 K, 33377 kPa | 1030.7
303.15 K, 33404 kPa | 1030.7
303.15 K, 33423 kPa | 1030.9
303.15 K, 33449 kPa | 1030.8
303.15 K, 33472 kPa | 1030.7
303.15 K, 33494 kPa | 1030.9
303.15 K, 33521 kPa | 1030.8
303.15 K, 33544 kPa | 1030.8
303.15 K, 33594 kPa | 1030.9
303.15 K, 33616 kPa | 1030.9
303.15 K, 33643 kPa | 1031
303.15 K, 33666 kPa | 1031
303.15 K, 33687 kPa | 1031
303.15 K, 33715 kPa | 1030.9
303.15 K, 33740 kPa | 1031
303.15 K, 33763 kPa | 1031
303.15 K, 33790 kPa | 1031.1
303.15 K, 33813 kPa | 1031
303.15 K, 33836 kPa | 1031
303.15 K, 33862 kPa | 1031
303.15 K, 33886 kPa | 1031.1
303.15 K, 33911 kPa | 1031
303.15 K, 33938 kPa | 1031.1
303.15 K, 33963 kPa | 1031
303.15 K, 33987 kPa | 1031.2
303.15 K, 34014 kPa | 1031.2
303.15 K, 34041 kPa | 1031.1
303.15 K, 34066 kPa | 1031.2
303.15 K, 34091 kPa | 1031.2
303.15 K, 34122 kPa | 1031.2
303.15 K, 34148 kPa | 1031.3
303.15 K, 34176 kPa | 1031.2
303.15 K, 34209 kPa | 1031.1
303.15 K, 34236 kPa | 1031.2
303.15 K, 34272 kPa | 1031.3
303.15 K, 34293 kPa | 1031.3
303.15 K, 34298 kPa | 1031.3
303.15 K, 34306 kPa | 1031.3
303.15 K, 34335 kPa | 1031.4
303.15 K, 34345 kPa | 1031.4
303.15 K, 34355 kPa | 1031.4
303.15 K, 34361 kPa | 1031.3
303.15 K, 34369 kPa | 1031.2
303.15 K, 34375 kPa | 1031.4
303.15 K, 34382 kPa | 1031.4
303.15 K, 34388 kPa | 1031.3
303.16 K, 663.45 kPa | 1011.3
303.16 K, 665.18 kPa | 1011.4
303.16 K, 666.06 kPa | 1011.3
303.16 K, 670.92 kPa | 1011.3
303.16 K, 671.95 kPa | 1011.3
303.16 K, 672.66 kPa | 1011.2
303.16 K, 673.71 kPa | 1011.2
303.16 K, 674.57 kPa | 1011.2
303.16 K, 683.79 kPa | 1011.3
303.16 K, 684.84 kPa | 1011.3
303.16 K, 687.26 kPa | 1011.2
303.16 K, 700.64 kPa | 1011.3
303.16 K, 702.03 kPa | 1011.2
303.16 K, 702.73 kPa | 1011.4
303.16 K, 732.61 kPa | 1011.3
303.16 K, 790.98 kPa | 1011.3
303.16 K, 792.36 kPa | 1011.4
